Experimental data reported in PMC12100716 (2025).

Legend:
Assay in all cases: PELDOR (EPR) distance distributions
[1] = system: C12C30 (RNA, aptamer, Çm (rigid nitroxide spin-label cytidine analogue) at 12 and 30) GGACGACUGAACCGAAAGGUUCUUGGCUGCUUCGGCAGAGGUACGUCC; settings: 130 mM glutamate buffer, pH 7.5; frozen solution; qualitative
[2] = system: C12C47 (RNA, aptamer, Çm (rigid nitroxide spin-label cytidine analogue) at 12 and 47) GGACGACUGAACCGAAAGGUUCUUGGCUGCUUCGGCAGAGGUACGUCC; settings: 130 mM glutamate buffer, pH 7.5; frozen solution; qualitative
[3] = system: C30C47 (RNA, aptamer, Çm (rigid nitroxide spin-label cytidine analogue) at 30 and 47) GGACGACUGAACCGAAAGGUUCUUGGCUGCUUCGGCAGAGGUACGUCC; settings: 130 mM glutamate buffer, pH 7.5; frozen solution; qualitative; small fraction of free aptamer remains

binding [1]: yes
binding [2]: yes
binding [3]: yes
SMILES: CN(C)c1ccc2c(-c3ccc(C(=O)O)cc3C(=O)[O-])c3ccc(=[N+](C)C)cc-3oc2c1
